We go through one compound from PMC7738871, “Covalent modification of Keap1 at Cys77 and Cys434 by pubescenoside a suppresses oxidative stress-induced NLRP3 inflammasome activation in myocardial ischemia-reperfusion injury” (Theranostics, 2021).

Assay [1] has as its system Nrf2 knockdown H9c2 cells. Briefly: OGD/R viability in Nrf2 siRNA knockdown H9c2. Format: cell-based, rat. Conditions: Nrf2 siRNA 24 h, H9c2, MTT. As for the experimental part:
Cell viability was determined by MTT assays. PBA was prepared to a stock solution dissolved in dimethyl sulfoxide (DMSO). RAW264.7, H9c2 cells, primary mouse cardiomyocytes were treated with different doses of PBA, and DMSO only as control for 48 h for the toxicity. In addition, H9c2 cells or primary mouse cardiomyocytes were treated with the indicated doses of PBA, diazoxide as positive control, DMSO only as control, then cultured with or without OGD/R treatment. At the end of the experiments, MTT was added into each well at the concentration of 0.5 mg/ml, and incubated at 37 °C for 4 h. After removal of the supernatant, 150 μL of DMSO was added to solubilize the formazan products. And the solution was measured at the absorbance of 490 nm by a spectrophotometer (Thermo Fisher Scientific, MA, USA). The results of the MTT assay in all groups were normalized to the control group with DMSO only treatment.
For transient transfection, HiPerFect Transfection Reagent (Qiagen, German) was used according to the manufacturer's instructions. Nrf2 siRNA (h) (sc-156128) and control siRNA-A (sc-37007) were bought from Santa Cruz Biotechnology. Briefly, H9c2 cells were seeded in 96-well plate at the density of 2x10^4 cells per well or 12-well plate at the density of 3x10^5 cells per well. According to preliminary results, transfection with siRNA for 24 h could get a better knockdown effect. […]

The next assay deals with T1, Keap1 C226S (Homo sapiens, UniProt Q14145, C226S).
T1 construct: His (N); made in house; host or cells: E. coli BL21 (DE3)
T1 sequence (Q14145 whole entry C226S): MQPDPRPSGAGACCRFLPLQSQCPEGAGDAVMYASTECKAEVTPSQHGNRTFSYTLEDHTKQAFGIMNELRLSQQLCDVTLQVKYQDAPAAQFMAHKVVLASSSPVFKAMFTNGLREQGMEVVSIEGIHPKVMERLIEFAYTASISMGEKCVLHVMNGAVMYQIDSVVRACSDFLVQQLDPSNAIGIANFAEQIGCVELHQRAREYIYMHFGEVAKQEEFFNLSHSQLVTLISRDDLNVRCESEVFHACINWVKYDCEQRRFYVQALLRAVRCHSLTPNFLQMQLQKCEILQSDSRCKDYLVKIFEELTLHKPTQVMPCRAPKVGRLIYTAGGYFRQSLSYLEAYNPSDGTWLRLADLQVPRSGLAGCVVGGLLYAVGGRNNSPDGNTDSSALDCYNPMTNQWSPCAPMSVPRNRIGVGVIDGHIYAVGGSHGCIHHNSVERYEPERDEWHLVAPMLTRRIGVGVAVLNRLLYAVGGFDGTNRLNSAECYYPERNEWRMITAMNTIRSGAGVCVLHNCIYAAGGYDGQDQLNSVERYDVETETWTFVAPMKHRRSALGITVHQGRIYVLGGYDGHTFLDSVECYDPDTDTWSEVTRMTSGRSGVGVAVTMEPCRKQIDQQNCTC
Briefly: ITC titration of PBA with Keap1-C226S. The format is binding. Conditions: 25 ℃. As for the experimental part: (§1) The Keap1 was amplified by PCR using a human cDNA library, and was subcloned into the vector pET28-TEV, which contained one tobacco etch virus (TEV) protease cleavage site at the upstream multiple cloning site. The protein was expressed in E. coli BL21 (DE3) cells and incubated at 37 °C until the OD600 value reached 0.6, using 0.2 mM isopropyl β-D-1-thiogalactopyranoside (IPTG) overnight induction at 18 °C. The cells were isolated by centrifugation, resuspended in ice-cold lysis buffer and lysed by cryogenic overpressure cell breaker at 1,200 psi. The lysates were centrifuged for 60 min at 14,000 rpm to obtain the supernatant. Gravity flow purification of Keap1 protein was obtained at room temperature using 1 mL of Ni-NTA and eluted in buffer containing 250 mM imidazole, followed by 1 mL of HiTrap QHP for the second step purification. The final protein was purified and validated by Superdex 200 10/300GL resin.
(§2) The mutant plasmid DNA was obtained by PCR. The PCR products were cleaved by DpnI restriction enzymes. The restriction endonuclease-cleaved mixture was subsequently transformed into E. coli DH5α. Colonies were evaluated by colony PCR and sequenced. The mutant plasmid was transformed into E. coli BL21 (DE3) after successful sequencing. The steps for expression and purification of all recombinants were described above.
(§3) Isothermal calorimetry (ITC) titration experiments were performed at 25 °C. WT Keap1, Keap1 mutants and PBA were dissolved in binding buffer (40 mM Tris-HCl pH 8.0, 250 mM NaCl). In a typical experiment, 60 μL of PBA (1 mM) was injected 19 times at 2-min intervals from a stirring syringe into the sample cell containing 300 μL of WT protein or mutants (30 μM). The first injection was 0.4 μL of PBA, and the subsequent 18 injections were 2 μL each time. The site-binding models were determined by using MicroCal Origin software.

Another assay concerns the target T2, Keap1 C77S (Homo sapiens, UniProt Q14145, C77S).
T2 construct: His (N); made in house; host or cells: E. coli BL21 (DE3)
Briefly: ITC titration of PBA with Keap1-C77S. Format: binding. As to conditions: 25 ℃. The protocol: as §1, §2, §3
A general note: In ITC the heat of successive injections is recorded.

In a further assay the target is T3, Keap1 C23S (Homo sapiens, UniProt Q14145, C23S).
T3 construct: His (N); made in house; host or cells: E. coli BL21 (DE3)
T3 sequence (Q14145 whole entry C23S): as the sequence (Q14145 whole entry C226S) above, with C23S, S226C counted along it
The experiment in a line: ITC titration of PBA with Keap1-C23S. The format is binding. Conditions: 25 ℃. As for the experimental part: as §1, §2, §3

The subject of another assay is ROS in H9c2 cells. The experiment in a line: Intracellular ROS (DCFH-DA), OGD/R H9c2. Format: cell-based, rat. As for the experimental part:
The fluorescent probe DCFH-DA was used to measure intracellular ROS levels. RAW264.7 cells were treated with 100 μg/mL LPS plus ATP as mentioned above. H9c2 cells underwent OGD/R. After the appropriate treatment, the cells were incubated with DCFH-DA at a concentration of 10 μM for 30 min. The cells were washed with PBS three times. A fluorescence microscope and microplate reader were used to measure the level of DCFH-DA fluorescence at the excitation wavelength of 488 nm and the emission wavelength of 525 nm.

Another assay addresses T4, Keap1 C273S (Homo sapiens, UniProt Q14145, C273S).
T4 construct: His (N); made in house; host or cells: E. coli BL21 (DE3)
The experiment in a line: ITC titration of PBA with Keap1-C273S. The format is binding. As to conditions: 25 ℃. As for the experimental part: as §1, §2, §3

The target in a further assay is T5, Keap1 WT (Homo sapiens, UniProt Q14145).
T5 construct: His (N); made in house; host or cells: E. coli BL21 (DE3)
T5 sequence (Q14145 whole entry): as the sequence (Q14145 whole entry C226S) above, with S226C counted along it
The experiment in a line: ITC titration of PBA with Keap1-WT. Conditions: 25 ℃. Format: binding. As for the experimental part: as §1, §3

T4 sequence (Q14145 whole entry C273S): as the sequence (Q14145 whole entry C226S) above, with S226C, C273S counted along it
T2 sequence (Q14145 whole entry C77S): as the sequence (Q14145 whole entry C226S) above, with C77S, S226C counted along it

As to `C=C(COC(=O)C=Cc1ccc(O)c(O)c1)C(O)COC1OC(CO)C(O)C(O)C1O` (stereo not shown) [PBA, pubescenoside A], the “cardioprotection against OGD/R after Nrf2 knockdown” value in assay [1] is “blocked”. In addition, the Kd on Keap1 C226S was 8.12 µM; on Keap1 C77S, 19.5 µM; at Keap1 C23S, 9.78 µM; on Keap1 C273S, 3.8 µM; on Keap1 WT it was 2.61 µM. For the same compound, the “T△S” value was 1.84 ± 0.00 kcal/mol on Keap1 C226S; 0.78 ± 0.00 kcal/mol on Keap1 C77S; 3.22 ± 0.00 kcal/mol on Keap1 C23S; 3.53 ± 0.00 kcal/mol on Keap1 C273S; 4.31 ± 0.00 kcal/mol on Keap1 WT. The “△G” value was -6.95 ± 0.00 kcal/mol on Keap1 C226S; -6.43 ± 0.00 kcal/mol at Keap1 C77S; -6.84 ± 0.00 kcal/mol on Keap1 C23S; -7.40 ± 0.00 kcal/mol on Keap1 C273S; -7.62 ± 0.00 kcal/mol at Keap1 WT. Moreover, the “△H” value on Keap1 C226S is -5.11 ± 0.279 kcal/mol; on Keap1 C77S, -5.65 ± 0.866 kcal/mol; at Keap1 C23S, -3.62 ± 0.241 kcal/mol; on Keap1 C273S, -3.87 ± 0.271 kcal/mol; on Keap1 WT it was -3.31 ± 0.199 kcal/mol. The “OGD/R-induced ROS” value with ROS in H9c2 cells is recorded as “significantly suppress”.

In general, Kd refers to the concentration at which binding is half-saturated.
